Assays:
primary microglia cells = experiment: NO, TNF-α and IL-1β production in LPS-induced primary microglia; assay type: cell-based, Sprague Dawley rats; settings: 1.0 μg/ml LPS, 10, 20, 50 μM
Description: Primary microglia were prepared from the cortical tissue of neonatal (1–3 d) Sprague Dawley rats as [Ni and Aschner (2010)] described and primary cortical neurons were isolated from embryos of pregnant Sprague Dawley rats of E-18 ([Zeng et al., 2012]). All experimental manipulations with the animals was reviewed and approved by the animal experimental ethics committee of Peking University. The animals used in the work were performed in accordance with the Animal Care and Use Guidelines of Peking University.
The NO levels in culture media was determined using a Griess method. Cells were treated with different concentrations of circumdatins in the presence or absence of LPS for 24 h. After that, the supernatant fraction of the culture media was collected and mixed with the same volume of Griess reagent (1% sulfanilamide/0.1% naphthyl ethylene diamine dihydrochloride/2% H3PO4). Then, the absorbance was measured at 540 nm using a microplate spectrophotometer (Thermo Scientifics, USA). The concentration of nitrite was calculated from a calibration curve obtained from standards sodium nitrite solutions.
Cells were treated with different concentrations of circumdatin D in the presence or absence of LPS for indicated time. […] The levels of TNF-α and IL-β in the supernatants were determined by ELISA kits according to the manufacturer's instructions.

[1] = test system: JaK2/STAT3 signaling pathway; experiment: JaK2/STAT3 phosphorylation and STAT3 translocation in LPS-induced BV-2 cells; assay type: cell-based, murine; settings: 1 μg/ml LPS, 10, 20, 50 μM, 3 h
Description: BV2 cells were seeded on glass coverslips and treated with circumdatin D in the presence or absence of LPS for indicated time. After that, the cells were washed twice with PBS and fixed with cold 4% paraformaldehyde for 30 min. Then, the cells were permeabilized with 0.1% Triton X-100 for 10 min and blocked with 5% bovine serum albumin for 1 h. After incubation with primary antibodies overnight at 4°C, the cells were incubated with Alexa Fluor 488-conjugated secondary antibodies (Proteintech, USA) for 1 h at room temperature. Furthermore, Hochest 33342 was added to stain cell nuclei. Images were acquired and analyzed using a confocal microscope (Leica, Germany).
Total cell proteins were lysed using cell extraction buffer containing phenylmethylsulfonyl ﬂuoride and protease inhibitor cocktail. The cytosolic and nuclear extracts were collected using the Nuclear and Cytosolic extraction kit. The protein extracts were separated on SDS-PAGE and transferred to PVDF membranes (Millipore). The membrane was blocked with 5% nonfat milk for 1 h at room temperature, and incubated with indicated primary antibodies overnight at 4°C. After washing, the membrane was incubated with secondary antibodies conjugated to horseradish peroxidase (Proteintech, USA) at room temperature for 1 h. […] The relative optical densities were analyzed using the Image Master™ 2D Elite software.

[2] = target: T1, acetylcholinesterase (AChE) from Electrophorus electrics (Electric eel) (Electrophorus electricus, UniProt O42275); experiment: biochemical; settings: modified Ellman's colorimetric method; mean ± SD (n = 3)
T1 construct: purchased Sigma Chemical Co. (St Louis, MO, USA)
From the text: Dulbecco's modified Eagle medium (DMEM), α-minimum essential medium (α-MEM) and fetal bovine serum (FBS) were provided by Hyclone (Waltham, USA). 3-(4,5-Dimethylthiazol-2-yl)-2,5-diphenyltetrazolium bromide (MTT), acetylcholinesterase (AChE) from Electrophorus electrics (Electric eel) and lipopolysaccharide (LPS) (Escherichia coli 055: B5) were provided by Sigma Chemical Co. (St Louis, MO, USA). Enzyme-linked immunosorbent assay (ELISA) kits for IL-1β and TNF-α and Griess reagent for nitric oxide (NO) assay kit were provided by ExCell Bio (Shanghai, China). Antibodies for TLR4, MyD88, JNK, p-JNK, p38, p-p38, ERK, p-ERK, IκB, p-IκB, IKK, p-IKK, NF-κB, STAT3、p-STAT3、Jak2, p-Jak2, GAPDH and Histone H3 were purchased from Cell Signaling Technology (Danvers, USA). Antibodies for iNOS and COX-2 were provided by Abcam (Cambridge, UK).
AChE activities in vitro and in vivo were assessed by a modified Ellman's spectrophotometric method ([Szwajgier, 2015]). Briefly, AChE (80 μl) in phosphate buffer (Na2HPO4/NaH2PO4, pH 8.0) and compound (20 μl) diluted in same phosphate buffer were added to 96 microplates as the reaction mixture. The mixture was incubated at 37°C for 30 min before addition of 10 μl 5,5′-dithiobis (2-nitrobenzoic acid) (DTNB) (3 mM) and 10 μl acetylthiocholine iodide (ATCI) (15 mM). After incubation for 20 min, the absorbance was detected at 412 nm using a microplate spectrophotometer (Thermo Scientifics, USA). […] The inhibitory rate of AChE was calculated, and the IC50 values were calculated by GraphPad Prism® 5.0 software (GraphPad Inc., San Diego, USA).

C. elegans CL4176 = experiment: Paralysis assay in transgenic C. elegans CL4176; assay type: in vivo, Caenorhabditis elegans; settings: 36 h after temperature upshift 16 to 25°C
Description: The in vivo effects of circumdatin D on pro-inflammatory response and AChE activity were evaluated using C. elegans as animal model. Transgenic C. elegans CL4176 and E. coli OP50 were bought from the Caenorhabditis Genetics Center (University of Minnesota, Minneapolis, MN, USA). CL4176 strain become paralysis after up-shifting temperature from 16 to 25°C due to expressing human β-amyloid peptide in muscle cells. The nematodes were cultivated on nematode growth medium (NGM) plates (1.7% Agar, 0.3% NaCl, 0.25% peptone, 1 mM CaCl2, 1 mM MgSO4, 5 mg/L cholesterol, and 2.5 mM K2HPO4) with E. coli OP50 at 16°C. In paralysis assay, egg-synchronized CL4176 nematodes were incubated on solid NGM plates with E. coli OP50 at 16°C. When the age of the worms grew to L4 stage, nematodes were divided into four groups and exposed to appropriate concentrations of circumdatin D or vehicle control (0.4% DMSO) at 16 °C for 36 h. The temperature was then raised from 16 to 25°C, the number of paralyzed worms was counted under the microscope. The paralyzed worms were recognized for those with no response or only moved head when gently touched with a platinum wire. Each independent assay included three NGM plates with 30 worms for each one. Likewise, the AChE activity and RT-PCR assay was employed using similar conditions.
In paralysis assay, CL4176 worms were egg-synchronized onto fresh NGM plates containing OP50 bacteria at 16℃. To induce the transgene expression, the temperature raised from 16 to 25℃ and lasted until the end of the paralysis assay. The recording was performed at two hours interval typically after 24h at 25 °C until the majority of worm became paralyzed. The worms were considered as paralyzed if there was no response or they only moved their head when gently touched with a platinum wire. Each independent assay included three NGM plates with twenty worms in each one.

BV-2 cells = experiment: Western blot of iNOS and COX-2 in LPS-induced BV-2 cells; assay type: cell-based, murine; settings: 1 μg/ml LPS, 10, 20, 50 μM, 24 h
Description: Total cell proteins were lysed using cell extraction buffer containing phenylmethylsulfonyl ﬂuoride and protease inhibitor cocktail. The cytosolic and nuclear extracts were collected using the Nuclear and Cytosolic extraction kit. The protein extracts were separated on SDS-PAGE and transferred to PVDF membranes (Millipore). The membrane was blocked with 5% nonfat milk for 1 h at room temperature, and incubated with indicated primary antibodies overnight at 4°C. After washing, the membrane was incubated with secondary antibodies conjugated to horseradish peroxidase (Proteintech, USA) at room temperature for 1 h. Then, the proteins of interest were visualized utilizing a chemiluminescence (ECL) detection system. The relative optical densities were analyzed using the Image Master™ 2D Elite software.

T1 sequence (O42275 24-633): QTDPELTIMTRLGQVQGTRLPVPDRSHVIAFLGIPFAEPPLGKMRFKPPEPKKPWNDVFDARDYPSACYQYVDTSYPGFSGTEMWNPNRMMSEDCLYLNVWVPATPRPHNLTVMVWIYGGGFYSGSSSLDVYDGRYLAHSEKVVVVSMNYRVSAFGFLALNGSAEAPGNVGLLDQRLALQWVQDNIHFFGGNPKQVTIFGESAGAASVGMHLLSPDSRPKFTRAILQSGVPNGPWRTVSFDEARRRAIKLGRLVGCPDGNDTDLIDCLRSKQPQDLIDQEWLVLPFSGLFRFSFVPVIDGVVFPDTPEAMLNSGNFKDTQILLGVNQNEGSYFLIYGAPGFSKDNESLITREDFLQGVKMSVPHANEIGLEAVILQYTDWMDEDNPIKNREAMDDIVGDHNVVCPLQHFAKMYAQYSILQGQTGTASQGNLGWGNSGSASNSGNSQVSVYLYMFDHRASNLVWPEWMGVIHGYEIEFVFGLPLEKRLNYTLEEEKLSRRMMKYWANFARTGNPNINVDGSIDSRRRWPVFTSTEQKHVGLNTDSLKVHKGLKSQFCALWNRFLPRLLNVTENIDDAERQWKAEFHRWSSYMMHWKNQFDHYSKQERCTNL

COc1ccc2c(c1)C(=O)N1CCC[C@H]1c1nc3ccc(OC)cc3c(=O)n1-2 [circumdatin D]
LPS-stimulated production of NO, TNF-α and IL-1β (primary microglia cells): significantly decreased the production of NO, TNF-α and IL-1β
LPS-induced phosphorylation of JaK2 [1]: strongly reduced LPS-induced phosphorylation of JaK2
phosphorylation and nuclear translocation of STAT3 [1]: effectively inhibited the phosphorylation and translocation of STAT3
IC50 [2]: 2400 ± 500 nM
reduction of paralysis (C. elegans CL4176; CL4176, 50 μM): about 24.9%
reduction of paralysis (C. elegans CL4176; CL4176, 100 μM): ~42.8%
reduction of paralysis (C. elegans CL4176; CL4176, 200 μM): ~74.8%
iNOS and COX-2 protein expression (BV-2 cells): reduced LPS-induced COX-2 and iNOS expression dose-dependently

From paper PMC7261837, “Circumdatin D Exerts Neuroprotective Effects by Attenuating LPS-Induced Pro-Inflammatory Responses and Downregulating Acetylcholinesterase Activity In Vitro and In Vivo” (Frontiers in Pharmacology, 2020)
